US9000175B2, “Bicyclic GPR119 modulators” (Lupin Limited, priority 2010, dated 2015)
Where “and” joins values, the source holds several entries; their conditions need not be identical. Identical values can stand only once.

Biological target: T1, human GPR119 (Homo sapiens, UniProt Q8TDV5)
T1 construct: expressed in transfected cells
T1 sequence (Q8TDV5 1-335): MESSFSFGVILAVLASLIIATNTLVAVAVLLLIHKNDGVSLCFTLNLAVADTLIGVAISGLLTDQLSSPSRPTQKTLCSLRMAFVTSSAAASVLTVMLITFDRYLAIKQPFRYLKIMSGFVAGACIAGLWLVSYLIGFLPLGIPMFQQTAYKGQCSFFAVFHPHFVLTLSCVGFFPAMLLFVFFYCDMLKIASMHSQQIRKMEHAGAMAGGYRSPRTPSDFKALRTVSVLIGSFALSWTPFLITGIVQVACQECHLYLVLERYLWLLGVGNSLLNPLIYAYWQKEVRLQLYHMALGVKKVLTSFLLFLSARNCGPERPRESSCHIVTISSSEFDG
Assay: Cyclic AMP assay in stable cell line
Format: cell-based
Conditions: CHO-K1 cells stably transfected with human GPR119; cAMP levels (FRET, cAMP femto kit); 1 h at 37° C; read-out: EC50 Range
Procedure: Cyclic AMP Assay in Stable Cell Line:
Chinese Hamster Ovary (CHO-K1) cells were stably transfected with human GPR119 and were maintained in Ham's F-12 complete medium containing 10% heat inactivated FBS (Sigma, UK). The cells were maintained under a selection pressure with 500 μg/ml G418 (GENETICIN). Stable clones were analyzed for functional cAMP response to OEA (oleoylethanolamide).
To estimate activation of GPR119 and induction of cAMP levels by GPR119 agonists, cells were serum starvation for 18-24 h, trypsinized and seeded in 96 well plates at a, density of 7500 cells/well. The cells were then treated with test compounds diluted in serum free Ham's F12 for 1 h at 37° C. The cAMP levels were measured by using the cAMP femto kit (CisBio) by following the manufacturer's instructions. Following treatment with a test compound, the cells were lysed and cAMP levels were estimated by adding D2-labelled cAMP and europium-cryptate conjugated anti-cAMP antibody. Close proximity of D2 and cryptate results in FRET and the subsequent fluorescence that is measured at 665 and 620 nm. The FRET response is calculated as the ratio of fluorescence at 665 to fluorescence at 620 nm. The unlabelled cAMP produced as a result of GPR119 activation/agonism competes with the D2-cAMP leading to a decrease in the FRET signal. Thus the FRET signal is inversely proportional to the amount of cAMP produced by the treated cells. In a separate set of wells, known concentrations of cAMP were added in order to get a standard linear curve for extrapolation of the cAMP values in the unknown/test samples. Fluorescence was measured on BMG Labtech PHERAstar machine.
The concentration of compound required to stimulate a half-maximal response (EC50) was determined using the GraphPad Prism software.
The compounds prepared were tested using the above assay procedure and the results obtained are given below.

Question: For `CC(C)NC(=O)c1ccc2c(c1)CCN2c1ccc(OC2CCN(C(=O)OC(C)(C)C)CC2)cn1` [Example-136, tert-Butyl-4-((6-(5-(isopropylcarbamoyl)indolin-1-yl)pyridin-3-yl)-oxy) piperidine-1-carboxylate], which EC50 is on record?
Answer: < 0.05 µM

Question: For `CCOC(=O)N1CCC(Oc2ccc(-n3ccc4cc(N5CCCC5=O)ccc43)nc2)CC1` [Example-182, Ethyl 4-((6-(5-(2-oxopyrrolidin-1-yl)-1H-indol-1-yl)pyridin-3-yl)oxy) piperidine-1-carboxylate], which EC50 is on record?
Answer: 0.05 to 0.25 µM

Question: `CCc1cnc(N2CCC(COc3ccc(-n4ccc5cc(S(C)(=O)=O)ccc54)nc3)CC2)nc1` [Example-6, 1-(5-((1-(5-Ethylpyrimidin-2-yl)piperidin-4-yl)methoxy)pyridin-2-yl)-5-(methylsulfonyl)-1H-indole] was tested. Which EC50 did it give?
Answer: < 0.05 µM

Question: With `CCc1cnc(N2CCC(Oc3ccc(-n4ccc5cc(S(C)(=O)=O)ccc54)nc3)CC2)nc1` [Example-2, 1-(5-((1-(5-Ethylpyrimidin-2-yl)piperidin-4-yl)oxy)pyridin-2-yl)-5-(methylsulfonyl)-1H-indole] as the compound, how does the EC50 read?
Answer: < 0.05 µM

Question: With `CC(C)C(=O)Nc1ccc2c(ccn2-c2ccc(OC3CCN(C(=O)C(C)C)CC3)cn2)c1` [Example-127, N-(1-(5-((1-Isobutyrylpiperidin-4-yl)oxy)pyridin-2-yl)-1H-indol-5-yl) isobutyramide] as the compound, how does the EC50 read?
Answer: < 0.05 µM

Question: For `CC(C)(C)OC(=O)N1CCC(Oc2ccc(-n3ccc4cc(CO)ccc43)nc2)CC1` [Example-94, tert-Butyl-4-((6-(5-(hydroxymethyl)-1H-indol-1-yl)pyridin-3-yl)oxy)piperidine-1-carboxylate], which EC50 is on record?
Answer: 0.25 to 1 µM

Question: How did the EC50 turn out when `CCc1cnc(N2CCC(Oc3ccc(-n4ccc5cc(S(=O)(=O)CC)ccc54)nc3)CC2)nc1` [Example-11, 1-(5-((1-(5-Ethylpyrimidin-2-yl)piperidin-4-yl)oxy)pyridin-2-yl)-5-(ethylsulfonyl)-1H-indole] was run?
Answer: < 0.05 µM

Question: How did the EC50 turn out when `CCc1cnc(N2CCC(Oc3ccc(-n4ccc5cc(-c6nc(C)no6)ccc54)nc3)CC2)nc1` [Example-103, 5-(1-(5-((1-(5-Ethylpyrimidin-2-yl)piperidin-4-yl)oxy)pyridin-2-yl)-1H-indol-5-yl)-3-methyl-1,2,4-oxadiazole] was run?
Answer: 0.05 to 0.25 µM

Question: With `CCc1noc(N2CCC(Oc3ccc(-n4ccc5cc(C(=O)N(C)C)ccc54)nc3)CC2)n1` [Example-147, 1-(5-((1-(3-Ethyl-1,2,4-oxadiazol-5-yl)piperidin-4-yl)oxy)pyridin-2-yl)-N,N-dimethyl-1H-indole-5-carboxamide] as the compound, how does the EC50 read?
Answer: 0.05 to 0.25 µM

Question: With `CCc1cnc(N2CCC(Oc3ccc(-n4ccc5cc(C(=O)NCCO)ccc54)nc3)CC2)nc1` [Example-77, 1-(5-((1-(5-Ethylpyrimidin-2-yl)piperidin-4-yl)oxy)pyridin-2-yl)-N-(2-hydroxyethyl)-1H-indole-5-carboxamide] as the compound, how does the EC50 read?
Answer: < 0.05 µM

Question: With `CN(C)C(=O)c1ccc2c(ccn2-c2ccc(OC3CCN(C(=O)OC(C)(C)C)CC3)cn2)c1` [Example-39, tert-Butyl-4-((6-(5-(dimethylcarbamoyl)-1H-indol-1-yl)pyridin-3-yl)oxy) piperidine-1-carboxylate] as the compound, how does the EC50 read?
Answer: < 0.05 µM

Question: How did the EC50 turn out when `CC(C)c1noc(N2CCC(Nc3ccc(-n4ccc5cc(S(C)(=O)=O)ccc54)nc3)CC2)n1` [Example-120, N-(1-(3-Isopropyl-1,2,4-oxadiazol-5-yl)piperidin-4-yl)-6-(5-(methylsulfonyl)-1H-indol-1-yl)pyridin-3-amine] was run?
Answer: < 0.05 µM

Question: Which EC50 does the source give for `CC(C)OC(=O)N1CCC(Oc2ccc(-n3ccc4cc(N5CCOC5=O)ccc43)nc2)CC1` [Example-166, Isopropyl 4-((6-(5-(2-oxooxazolidin-3-yl)-1H-indol-1-yl)pyridin-3-yl)oxy)piperidine-1-carboxylate] here?
Answer: 0.25 to 1 µM

Question: How did the EC50 turn out when `CCOC(=O)Nc1ccc2c(ccn2-c2ccc(OC3CCN(c4ncc(CC)cn4)CC3)cn2)c1` [Example-9, Ethyl(1-(5-((1-(5-ethylpyrimidin-2-yl)piperidin-4-yl)oxy)pyridin-2-yl)-1H-indol-5-yl)carbamate] was run?
Answer: < 0.05 µM

Question: `CCc1cnc(N2CCC(OCc3ccc(N4CCc5cc(S(C)(=O)=O)ccc54)nc3)CC2)nc1` [Example-113, 1-(5-(((1-(5-Ethylpyrimidin-2-yl)piperidin-4-yl)oxy)methyl)pyridin-2-yl)-5-(methylsulfonyl)indoline] was tested. Which EC50 did it give?
Answer: 0.25 to 1 µM

Question: `CCc1cnc(N2CCC(OCc3ccc(-n4ccc5cc(S(C)(=O)=O)ccc54)nc3)CC2)nc1` [Example-42, 1-(5-(((1-(5-Ethylpyrimidin-2-yl)piperidin-4-yl)oxy)methyl)pyridin-2-yl)-5-(methylsulfonyl)-1H-indole] was tested. Which EC50 did it give?
Answer: 0.05 to 0.25 µM

Question: `CCOC(=O)N1CCC(Oc2ccc(-n3ccc4cc(S(C)(=O)=O)ccc43)nc2)CC1` [Example-185, Ethyl-4-((6-(5-(methylsulfonyl)-1H-indol-1-yl)pyridin-3-yl)oxy)-piperidine-1-carboxylate] was tested. Which EC50 did it give?
Answer: 0.05 to 0.25 µM

Question: `CCc1cnc(N2CCC(Oc3ccc(-n4ccc5cc(S(C)(=O)=O)cc(F)c54)nc3)CC2)nc1` [Example-171, 1-(5-((1-(5-Ethylpyrimidin-2-yl)piperidin-4-yl)oxy)pyridin-2-yl)-7-fluoro-5-(methylsulfonyl)-1H-indole] was tested. Which EC50 did it give?
Answer: < 0.05 µM

Question: How did the EC50 turn out when `CC(C)NC(=O)c1ccc2c(ccn2-c2ccc(OC3CCN(C(=O)OC(C)C)CC3)cn2)c1` [Example-72, Isopropyl 4-((6-(5-(isopropylcarbamoyl)-1H-indol-1-yl)pyridin-3-yl)oxy) piperidine-1-carboxylate] was run?
Answer: 0.25 to 1 µM and 0.05 to 0.25 µM

Question: Which EC50 does the source give for `CCOC(=O)N1CCC(Oc2ccc(-n3ccc4cc(-n5cncn5)ccc43)nc2)CC1` [Example-192, Ethyl-4-((6-(5-(1H-1,2,4-triazol-1-yl)-1H-indol-1-yl)pyridin-3-yl)oxy) piperidine-1-carboxylate] here?
Answer: 0.25 to 1 µM

Question: `CC(C)(C)OC(=O)N1CCC(Oc2ccc(-n3ccc4cc(S(C)(=O)=O)ccc43)nc2)CC1` [Example-1, tert-Butyl-4-((6-(5-(methylsulfonyl)-1H-indol-1-yl)pyridin-3-yl)oxy) piperidine-1-carboxylate] was tested. Which EC50 did it give?
Answer: < 0.05 µM

Question: Which EC50 does the source give for `CC(C)(C)OC(=O)N1CC2COCC(C1)C2Oc1ccc(-n2ccc3cc(S(C)(=O)=O)ccc32)nc1` (stereo not drawn) [Example-48, (syn)-tert-Butyl-9-((6-(5-(methylsulfonyl)-1H-indol-1-yl)pyridin-3-yl)oxy)-3-oxa-7-azabicyclo[3.3.1]nonane-7-carboxylate] here?
Answer: 0.05 to 0.25 µM

Question: How did the EC50 turn out when `CS(=O)(=O)c1ccc2c(ccn2-c2ccc(OC3CCN(CC4(C(F)(F)F)CC4)CC3)cn2)c1` [Example-193, 5-(Methylsulfonyl)-1-(5-((1-((1-(trifluoromethyl)cyclopropyl)methyl)-piperidin-4-yl)oxy)pyridin-2-yl)-1H-indole] was run?
Answer: < 0.05 µM

Question: `CC(C)c1noc(CN2CCC(Oc3ccc(-n4ccc5cc(S(C)(=O)=O)ccc54)nc3)CC2)n1` [Example-80, 3-Isopropyl-5-((4-((6-(5-(methylsulfonyl)-1H-indol-1-yl)pyridin-3-yl)oxy)piperidin-1-yl)methyl)-1,2,4-oxadiazole] was tested. Which EC50 did it give?
Answer: < 0.05 µM

Question: How did the EC50 turn out when `CC(C)c1noc(CN2CCC(Oc3ccc(-n4ccc5cc(C(=O)N(C)C)ccc54)nc3)CC2)n1` [Example-84] was run?
Answer: 0.25 to 1 µM

Question: With `CCc1cnc(N2CCC(COc3ccc(-n4ccc5cc(C(=O)NC)ccc54)nc3)CC2)nc1` [Example-67, 1-(5-((1-(5-Ethylpyrimidin-2-yl)piperidin-4-yl)methoxy)pyridin-2-yl)-N-methyl-1H-indole-5-carboxamide] as the compound, how does the EC50 read?
Answer: 0.05 to 0.25 µM

Question: With `CCc1cnc(N2CCC(Nc3ccc(-n4ccc5cc(C(=O)N(C)C)ccc54)nc3)CC2)nc1` [Example-22, 1-(5-((1-(5-Ethylpyrimidin-2-yl)piperidin-4-yl)amino)pyridin-2-yl)-N,N-dimethyl-1H-indole-5-carboxamide] as the compound, how does the EC50 read?
Answer: < 0.05 µM

Question: Which EC50 does the source give for `Cc1noc(N2CCC(Oc3ccc(-n4ccc5cc(S(C)(=O)=O)ccc54)nc3)CC2)n1` [Example-92, 3-Methyl-5-(4-((6-(5-(methylsulfonyl)-1H-indol-1-yl)pyridin-3-yl)oxy)piperidin-1-yl)-1,2,4-oxadiazole] here?
Answer: 0.05 to 0.25 µM

Question: Which EC50 does the source give for `CCc1noc(N2CCC(Oc3ccc(-n4ccc5cc(NC(=O)OC(C)C)ccc54)nc3)CC2)n1` [Example-143, Isopropyl(1-(5-((1-(3-ethyl-1,2,4-oxadiazol-5-yl)piperidin-4-yl)oxy)pyridin-2-yl)-1H-indol-5-yl)carbamate] here?
Answer: < 0.05 µM

Question: For `CCc1cnc(N2CCC(Oc3ccc(-n4ccc5cc(OC)cnc54)nc3)CC2)nc1` [Example-157, 1-(5-((1-(5-Ethylpyrimidin-2-yl)piperidin-4-yl)oxy)pyridin-2-yl)-5-methoxy-1H-pyrrolo[2,3-b]pyridine], which EC50 is on record?
Answer: 0.05 to 0.25 µM
